Data taken from paper PMC4472782, “Antibacterial Characterization of Novel Synthetic Thiazole Compounds against Methicillin-Resistant Staphylococcus pseudintermedius” (PLoS ONE, 2015).
≈ marks a conversion by molar mass, not a printed value. Counter-ions that a name gives are not always drawn. Like-named read-outs stand apart in the source and are kept apart here. Each block holds one molecule with its values, some of them ahead of it.

Experiments:
[1] = test system: methicillin-sensitive Staphylococcus pseudintermedius; assay: MIC by broth microdilution against MSSP clinical isolates; type: cell-based; details: nine MSSP isolates, triplicate
Description: (§1) Fifteen isolates of S. pseudintermedius (nine MSSP and six MRSP), identified at the Indiana Animal Disease Diagnostic Laboratory from specimens collected from dogs admitted to the small animal teaching hospital at Purdue University, were included in the study. The specimens were not collected specifically for this research study but were obtained from patients admitted to the hospital for treatment. Clinical specimens were inoculated onto 5% sheep blood agar and incubated at 35°C for 18–24 hours. Standard methods including examination of colony morphology and hemolysis and biochemical tests such as tube coagulase, Voges-Proskauer (VP) and fermentation tests for maltose, trehalose and lactose, were used in addition to matrix-assisted laser desorption ionization time of flight mass spectrometry to identify isolates. Antimicrobial susceptibility was determined by broth microdilution using the SensiTitre (Thermofisher Scientific).
(§2) Bacteria were prepared in phosphate-buffered saline (PBS) until a McFarland standard of 0.5 was achieved. The solution was subsequently diluted 1:300 in Mueller-Hinton broth (MHB) to reach a starting inoculum of 1 × 10^5 colony-forming units (CFU/mL). Bacteria were then transferred to a 96-well microtiter plate. Thiazole compounds and antibiotics were added (in triplicate) to wells in the first row of the microtiter plate and then serially diluted along the vertical axis. […] The MIC was categorized as the concentration where there was no visible growth of bacteria observed.

[2] = test system: methicillin-resistant Staphylococcus pseudintermedius; assay: MIC by broth microdilution against MRSP clinical isolates; type: cell-based; details: six MRSP isolates, triplicate
Description: as §1, §2

[3] = test system: methicillin-sensitive Staphylococcus pseudintermedius; assay: MBC determination against MSSP clinical isolates; type: cell-based; details: nine MSSP isolates
Description: (§3) The MBC was determined by plating 5 μL from wells on the 96-well microtiter plate (where the MIC was determined) where no growth was observed onto Tryptic soy agar (TSA) plates. […] The MBC was categorized as the concentration where ≥99% reduction in bacterial cell count was observed.

[4] = test system: methicillin-resistant Staphylococcus pseudintermedius; assay: MBC determination against MRSP clinical isolates; type: cell-based; details: six MRSP isolates
Description: as §3

[5] = test system: MRSP SP3; assay: Time-kill analysis against MRSP; type: cell-based, Staphylococcus pseudintermedius; details: 4 × MIC, MRSP SP3, 24 hour incubation at 37°C
Description: MRSP SP3 cells in late logarithmic growth phase were diluted to ~1 × 10^6 CFU/mL and exposed to concentrations equivalent to 4 × MIC (in triplicate) of thiazole compounds 1–6 and rifampicin in MHB. Samples (20 μL) were collected after 0, 2, 4, 6, 8, 10, 12, and 24 hours of incubation at 37°C and subsequently serially diluted in PBS. Bacteria were then transferred to TSA plates and incubated at 37°C for 20–24 hours before viable CFU/mL values were determined.

[6] = test system: murine macrophage cell line (J774.A1); assay: In vitro cytotoxicity analysis (MTS assay); type: cell-based; details: 10 μg/mL, J774.A1, two hours
Description: Compounds were assayed at concentrations of 5 μg/mL, 10 μg/mL, 20 μg/mL, and 40 μg/mL against a murine macrophage cell line (J774.A1) (ATCC TIB-67, American Type Culture Collection (ATCC), Manassas, VA, USA) to determine the potential toxic effect in vitro. Cells were cultured in Dulbeco’s modified Eagle’s medium (Sigma-Aldrich, St. Louis, MO, USA) with 10% fetal bovine serum (USA Scientific, Inc.) at 37°C with 5% CO2. Controls received DMSO alone at a concentration equal to that in drug-treated cell samples. The cells were incubated with the compounds in a 96-well plate at 37°C and 5.0% CO2 for two hours prior to addition of the assay reagent MTS 3-(4,5-dimethylthiazol-2-yl)-5-(3-carboxymethoxyphenyl)-2-(4-sulfophenyl)-2H-tetrazolium) (Promega, Madison, WI, USA). Absorbance readings were taken using a kinetic ELISA microplate reader (Molecular Devices, Sunnyvale, CA, USA). The quantity of viable cells after treatment with each compound was expressed as a percentage of the control, DMSO.
All statistical analyses were performed with GraphPad Prism 6.0 (GraphPad Software, La Jolla, CA). Data generated from cytotoxicity analysis of the thiazole compounds against J774.A1 cells and the 260 and 280 nm cell leakage analysis were analyzed using one-way ANOVA, with post hoc Tukey's multiple comparisons test (P < 0.05).

[7] = test system: MRSP SP3; assay: Checkerboard assay of thiazole compounds with oxacillin; type: cell-based, Staphylococcus pseudintermedius
Description: The relationship between the thiazole compounds and oxacillin was assessed via a standard checkerboard assay. Bacteria (MRSP SP3) equivalent to a McFarland standard of 0.5 were prepared in PBS. The bacteria were next diluted in MHB to achieve a starting cell density of 1 × 10^5 CFU/mL. MHB was transferred to all wells of a 96-well microtiter plate. […] Oxacillin was serially diluted along the abscissa of the microtiter plate while the thiazole compound was serially diluted along the ordinate. The plate was incubated for 22–24 hours at 37°C. The MIC of the test compound in combination with oxacillin was determined as the lowest concentration of each compound/antibiotic where no visible growth of bacteria was observed. The fractional inhibitory concentration index (ƩFIC) was calculated for each combination as described previously. A synergistic relationship was classified as an FIC index less than or equal to 0.5. […]

[8] = test system: MRSP SP3; assay: Post-antibiotic effect against MRSP; type: cell-based, Staphylococcus pseudintermedius; details: 4 × MIC for one hour
Description: A tube containing untreated bacterial cells served as a control. Afterward, the compound/antibiotic was washed out by diluting bacteria 1:1000 in MHB. Counts of CFU for all cultures were obtained after washing. Aliquots (100 μL) of bacteria were removed every hour (for 10 hours), serially diluted in PBS, and plated on TSA plates. TSA plates were incubated for 20 hours at 37°C before CFU values were determined.

[9] = set-up: method as in PMID 24387054; details: phosphate-buffered saline; cited from earlier work
[10] = human liver microsomes; cited from earlier work
[11] = Kinetic (turbidimetric) solubility in PBS; type: physicochemical; details: phosphate-buffered saline; highest concentration with no precipitate
Description: The absorbance of the PBS-containing plate was measured prior to addition of the test agents to determine the background absorbance. After 2 hours, the presence of precipitate was detected by turbidity (absorbance at 540 nm).

[12] = test system: MRSP SP3; assay: Re-sensitization of MRSP to oxacillin, broth microdilution; type: cell-based; details: Staphylococcus pseudintermedius, clinical isolate identified as MRSP, read-out: MIC of oxacillin alone
Description: MHB was inoculated with MRSP SP3 (5×10^5 CFU/mL), as has been previously described. Aliquots (5 mL) of the bacterial suspension were divided into microcentrifuge tubes. The thiazole compounds tested (at ½ × MIC) were introduced into each tube. After sitting at room temperature for 30 minutes, 1 mL samples from each tube were transferred to a new centrifuge tube prior to addition of oxacillin (at a concentration equivalent to its MIC). Using a 96-well microtiter plate, rows 2–12 were filled with the remaining 4 mL bacterial suspension (containing the thiazole compound). Aliquots (200 μL) from tubes containing both the thiazole compound and oxacillin were transferred to row 1 of the 96-well plate. After aspirating contents in the first row 4–6 times, 100 μL was transferred from wells in row 1 to row 2. This process was repeated to dilute the remaining wells containing no antibiotic. Untreated bacteria served as a control. […] A fold reduction was calculated by comparing the MIC of the antibiotic alone compared to the MIC of the antibiotic given in combination with the thiazole compounds.

MIC50 ([1]; lowest concentration inhibiting growth in 50% of isolates): 0.35 µg/mL (≈ 1.06 µM)
MIC ([1]; read-out: MIC Range): 0.17 to 1.38 µg/mL (≈ 0.516 to 4.19 µM)
MIC50 ([2]; Staphylococcus pseudintermedius, read-out: MIC50): 0.69 µg/mL (≈ 2.09 µM)
MIC Range [2]: 0.35 to 1.38 µg/mL
Structure (SMILES): CCCCc1ccc(-c2nc(C)c(/C(C)=N/NC(=N)N)s2)cc1 [Compound 1]
MBC ([3]; Staphylococcus pseudintermedius, lowest concentration that killed 50% of isolates, read-out: MBC50): 0.46 µg/mL (≈ 1.4 µM)
MBC Range [3]: 0.17 to 2.77 µg/mL
MBC ([4]; Staphylococcus pseudintermedius, read-out: MBC50): 0.92 µg/mL (≈ 2.79 µM)
MBC Range [4]: 0.35 to 1.38 µg/mL
time required to completely eliminate MRSP [5]: four hours
toxicity to murine macrophage cells (MTS assay) [6]: toxic
relationship with oxacillin ([7]; checkerboard assay): synergistic
ƩFIC ([7]; combination with oxacillin, ≤ 0.5 synergistic, > 0.5 to ≤ 4.0 indifference, > 4 antagonistic): 0.19
Post-antibiotic Effect [8]: >9 h
solubility limit [9]: 20.56 µg/mL (≈ 62.4 µM)
half-life [10]: under 30 minutes

Structure (SMILES): COC(=O)[C@H]1[C@H]2C[C@@H]3c4[nH]c5cc(OC)ccc5c4CCN3C[C@H]2C[C@@H](OC(=O)c2cc(OC)c(OC)c(OC)c2)[C@@H]1OC [Reserpine, reference compound]
solubility limit [11]: 19.05 µg/mL (≈ 31.3 µM)

Structure (SMILES): Cc1onc(-c2ccccc2)c1C(=O)N[C@@H]1C(=O)N2[C@@H]1SC(C)(C)[C@@H]2C(=O)O [oxacillin, oxacillin sodium salt monohydrate]
MIC [12]: 128 µg/mL
